The test system of one data set is HIV. Kind of data set: In vitro anti-HIV activity, PBMC cell-based assay, side by side with AZT. The note with it: Human immunodeficiency virus 1.
Data set [1] in a line: Cytotoxicity (CC50) in the PBMC cell-based anti-HIV assay.
For data set [2] the following is noted: literature values, same sources as the IC50; cited from earlier work.

Each structure is given as a SMILES string. pIC50: −log10 of the molar value. Where two headings read alike, the source gives them in different places. A value given as a limit tells only on which side of the number the result lay.

As usually defined, the pIC50 is the negative decadic logarithm of the IC50, by convention in mol/L. The low end stands for a large IC50, the high end for a small IC50. Turning to `O=C(O)/C(O)=C/C(=O)c1cn(Cc2ccccc2)c(=O)n(Cc2ccccc2)c1=O`, the pIC50 in the data set with HIV is 7.70. The compound further showed a CC50 in data set [1] greater than 200 µM.
Turning to `O=C(O)C(=O)CC(=O)c1cc(OCc2ccccc2)cc(OCc2ccccc2)c1` [Example L-708906], in data set [2], the CC50 is 88.3 µM.
In the case of `O=C(/C=C(\O)c1nc[nH]n1)c1ccc(Cc2ccc(F)cc2)o1` [Example S-1360], the CC50 in data set [2] was 110 µM.

Values taken from patent US7569573B2, “Diketo acids with nucleobase scaffolds: anti-HIV replication inhibitors targeted at HIV integrase” (The University of Georgia Research Foundation, Inc., priority 2005, dated 2009).
